Data from the NIST ThermoML archive (doi:10.1021/je700499d).
Numbers after ± are expanded uncertainties.

Columns and labels:
[1] = 101 kPa, Liquid
[2] = xn = mol fraction of the nth substance listed; settings: 101 kPa, Liquid

OCCO [1,2-ethanediol]
mass density ([1]; 293.15 K): 1113.55 ± 0.61 kg/m3
mass density ([1]; 303.15 K): 1106.82 ± 0.65 kg/m3
mass density ([1]; 313.15 K): 1099.8 ± 0.69 kg/m3
mass density ([1]; 323.15 K): 1092.59 ± 0.73 kg/m3

OCCO [1,2-ethanediol] + OCCCCO
mass density ([2]; 293.15 K, x2 = 0): 1113.55 ± 0.61 kg/m3
mass density ([2]; 303.15 K, x2 = 0): 1106.82 ± 0.65 kg/m3
mass density ([2]; 313.15 K, x2 = 0): 1099.8 ± 0.69 kg/m3
mass density ([2]; 323.15 K, x2 = 0): 1092.59 ± 0.73 kg/m3

CC(O)CO (stereo not given) [1,2-propanediol]
mass density ([1]; 293.15 K): 1036.57 ± 0.54 kg/m3
mass density ([1]; 298.15 K): 1032.86 ± 0.56 kg/m3
mass density ([1]; 303.15 K): 1029.15 ± 0.58 kg/m3
mass density ([1]; 308.15 K): 1025.57 ± 0.6 kg/m3
mass density ([1]; 313.15 K): 1021.44 ± 0.62 kg/m3
mass density ([1]; 318.15 K): 1017.59 ± 0.64 kg/m3
mass density ([1]; 323.15 K): 1013.74 ± 0.66 kg/m3
mass density ([1]; 328.15 K): 1009.71 ± 0.68 kg/m3

CC(O)CO (stereo not given) [1,2-propanediol] + OCCCCO
mass density ([2]; 293.15 K, x2 = 0): 1036.57 ± 0.54 kg/m3
mass density ([2]; 298.15 K, x2 = 0): 1032.86 ± 0.56 kg/m3
mass density ([2]; 303.15 K, x2 = 0): 1029.15 ± 0.58 kg/m3
mass density ([2]; 308.15 K, x2 = 0): 1025.57 ± 0.6 kg/m3
mass density ([2]; 313.15 K, x2 = 0): 1021.44 ± 0.62 kg/m3
mass density ([2]; 318.15 K, x2 = 0): 1017.59 ± 0.64 kg/m3
mass density ([2]; 323.15 K, x2 = 0): 1013.74 ± 0.66 kg/m3
mass density ([2]; 328.15 K, x2 = 0): 1009.71 ± 0.68 kg/m3

OCCCCO [1,4-butanediol]
mass density ([1]; 293.15 K): 1016.37 ± 0.49 kg/m3
mass density ([1]; 298.15 K): 1013.04 ± 0.51 kg/m3
mass density ([1]; 303.15 K): 1009.96 ± 0.53 kg/m3
mass density ([1]; 308.15 K): 1006.75 ± 0.55 kg/m3
mass density ([1]; 313.15 K): 1003.55 ± 0.57 kg/m3
mass density ([1]; 318.15 K): 1000.72 ± 0.59 kg/m3
mass density ([1]; 323.15 K): 997.8 ± 0.61 kg/m3
mass density ([1]; 328.15 K): 994.41 ± 0.64 kg/m3

OCCCCO [1,4-butanediol] + CC(O)CO
mass density ([2]; 293.15 K, x1 = 0.0858): 1034.9 ± 0.53 kg/m3
mass density ([2]; 293.15 K, x1 = 0.1743): 1033.19 ± 0.52 kg/m3
mass density ([2]; 293.15 K, x1 = 0.2657): 1031.46 ± 0.52 kg/m3
mass density ([2]; 293.15 K, x1 = 0.3602): 1029.77 ± 0.51 kg/m3
mass density ([2]; 293.15 K, x1 = 0.4578): 1027.85 ± 0.51 kg/m3
mass density ([2]; 293.15 K, x1 = 0.5588): 1025.52 ± 0.51 kg/m3
mass density ([2]; 293.15 K, x1 = 0.6633): 1023.19 ± 0.5 kg/m3
mass density ([2]; 293.15 K, x1 = 0.7716): 1020.85 ± 0.5 kg/m3
mass density ([2]; 293.15 K, x1 = 0.8837): 1018.55 ± 0.49 kg/m3
mass density ([2]; 293.15 K, x1 = 1): 1016.37 ± 0.49 kg/m3
mass density ([2]; 298.15 K, x1 = 0.0858): 1031.31 ± 0.55 kg/m3
mass density ([2]; 298.15 K, x1 = 0.1743): 1029.67 ± 0.54 kg/m3
mass density ([2]; 298.15 K, x1 = 0.2657): 1028 ± 0.54 kg/m3
mass density ([2]; 298.15 K, x1 = 0.3602): 1026.34 ± 0.53 kg/m3
mass density ([2]; 298.15 K, x1 = 0.4578): 1024.48 ± 0.53 kg/m3
mass density ([2]; 298.15 K, x1 = 0.5588): 1022.17 ± 0.53 kg/m3
mass density ([2]; 298.15 K, x1 = 0.6633): 1019.88 ± 0.52 kg/m3
mass density ([2]; 298.15 K, x1 = 0.7716): 1017.57 ± 0.52 kg/m3
mass density ([2]; 298.15 K, x1 = 0.8837): 1015.25 ± 0.51 kg/m3
mass density ([2]; 298.15 K, x1 = 1): 1013.04 ± 0.51 kg/m3
mass density ([2]; 303.15 K, x1 = 0.0858): 1027.73 ± 0.57 kg/m3
mass density ([2]; 303.15 K, x1 = 0.1743): 1026.21 ± 0.56 kg/m3
mass density ([2]; 303.15 K, x1 = 0.2657): 1024.62 ± 0.56 kg/m3
mass density ([2]; 303.15 K, x1 = 0.3602): 1023.01 ± 0.55 kg/m3
mass density ([2]; 303.15 K, x1 = 0.4578): 1021.19 ± 0.55 kg/m3
mass density ([2]; 303.15 K, x1 = 0.5588): 1018.94 ± 0.55 kg/m3
mass density ([2]; 303.15 K, x1 = 0.6633): 1016.79 ± 0.54 kg/m3
mass density ([2]; 303.15 K, x1 = 0.7716): 1014.47 ± 0.54 kg/m3
mass density ([2]; 303.15 K, x1 = 0.8837): 1012.17 ± 0.53 kg/m3
mass density ([2]; 303.15 K, x1 = 1): 1009.96 ± 0.53 kg/m3
mass density ([2]; 308.15 K, x1 = 0.0858): 1024.25 ± 0.59 kg/m3
mass density ([2]; 308.15 K, x1 = 0.1743): 1022.83 ± 0.59 kg/m3
mass density ([2]; 308.15 K, x1 = 0.2657): 1021.31 ± 0.58 kg/m3
mass density ([2]; 308.15 K, x1 = 0.3602): 1019.74 ± 0.58 kg/m3
mass density ([2]; 308.15 K, x1 = 0.4578): 1018 ± 0.57 kg/m3
mass density ([2]; 308.15 K, x1 = 0.5588): 1015.76 ± 0.57 kg/m3
mass density ([2]; 308.15 K, x1 = 0.6633): 1013.64 ± 0.56 kg/m3
mass density ([2]; 308.15 K, x1 = 0.7716): 1011.33 ± 0.56 kg/m3
mass density ([2]; 308.15 K, x1 = 0.8837): 1009.03 ± 0.55 kg/m3
mass density ([2]; 308.15 K, x1 = 1): 1006.75 ± 0.55 kg/m3
mass density ([2]; 313.15 K, x1 = 0.0858): 1020.28 ± 0.61 kg/m3
mass density ([2]; 313.15 K, x1 = 0.1743): 1019 ± 0.61 kg/m3
mass density ([2]; 313.15 K, x1 = 0.2657): 1017.64 ± 0.6 kg/m3
mass density ([2]; 313.15 K, x1 = 0.3602): 1016.12 ± 0.6 kg/m3
mass density ([2]; 313.15 K, x1 = 0.4578): 1014.43 ± 0.59 kg/m3
mass density ([2]; 313.15 K, x1 = 0.5588): 1012.35 ± 0.59 kg/m3
mass density ([2]; 313.15 K, x1 = 0.6633): 1010.33 ± 0.58 kg/m3
mass density ([2]; 313.15 K, x1 = 0.7716): 1008.06 ± 0.58 kg/m3
mass density ([2]; 313.15 K, x1 = 0.8837): 1005.78 ± 0.57 kg/m3
mass density ([2]; 313.15 K, x1 = 1): 1003.55 ± 0.57 kg/m3
mass density ([2]; 318.15 K, x1 = 0.0858): 1016.58 ± 0.63 kg/m3
mass density ([2]; 318.15 K, x1 = 0.1743): 1015.49 ± 0.63 kg/m3
mass density ([2]; 318.15 K, x1 = 0.2657): 1014.21 ± 0.62 kg/m3
mass density ([2]; 318.15 K, x1 = 0.3602): 1012.83 ± 0.62 kg/m3
mass density ([2]; 318.15 K, x1 = 0.4578): 1011.22 ± 0.61 kg/m3
mass density ([2]; 318.15 K, x1 = 0.5588): 1009.28 ± 0.61 kg/m3
mass density ([2]; 318.15 K, x1 = 0.6633): 1007.33 ± 0.6 kg/m3
mass density ([2]; 318.15 K, x1 = 0.7716): 1005.16 ± 0.6 kg/m3
mass density ([2]; 318.15 K, x1 = 0.8837): 1002.94 ± 0.59 kg/m3
mass density ([2]; 318.15 K, x1 = 1): 1000.72 ± 0.59 kg/m3
mass density ([2]; 323.15 K, x1 = 0.0858): 1012.91 ± 0.65 kg/m3
mass density ([2]; 323.15 K, x1 = 0.1743): 1011.97 ± 0.65 kg/m3
mass density ([2]; 323.15 K, x1 = 0.2657): 1010.78 ± 0.64 kg/m3
mass density ([2]; 323.15 K, x1 = 0.3602): 1009.47 ± 0.64 kg/m3
mass density ([2]; 323.15 K, x1 = 0.4578): 1007.97 ± 0.63 kg/m3
mass density ([2]; 323.15 K, x1 = 0.5588): 1006.13 ± 0.63 kg/m3
mass density ([2]; 323.15 K, x1 = 0.6633): 1004.3 ± 0.62 kg/m3
mass density ([2]; 323.15 K, x1 = 0.7716): 1002.18 ± 0.62 kg/m3
mass density ([2]; 323.15 K, x1 = 0.8837): 1000.03 ± 0.62 kg/m3
mass density ([2]; 323.15 K, x1 = 1): 997.8 ± 0.61 kg/m3
mass density ([2]; 328.15 K, x1 = 0.0858): 1009 ± 0.67 kg/m3
mass density ([2]; 328.15 K, x1 = 0.1743): 1008.2 ± 0.67 kg/m3
mass density ([2]; 328.15 K, x1 = 0.2657): 1007.11 ± 0.66 kg/m3
mass density ([2]; 328.15 K, x1 = 0.3602): 1005.84 ± 0.66 kg/m3
mass density ([2]; 328.15 K, x1 = 0.4578): 1004.39 ± 0.66 kg/m3
mass density ([2]; 328.15 K, x1 = 0.5588): 1002.63 ± 0.65 kg/m3
mass density ([2]; 328.15 K, x1 = 0.6633): 1000.83 ± 0.65 kg/m3
mass density ([2]; 328.15 K, x1 = 0.7716): 998.81 ± 0.64 kg/m3
mass density ([2]; 328.15 K, x1 = 0.8837): 996.69 ± 0.64 kg/m3
mass density ([2]; 328.15 K, x1 = 1): 994.41 ± 0.64 kg/m3

OCCCCO [1,4-butanediol] + OCCCO
mass density ([2]; 293.15 K, x1 = 1): 1016.37 ± 0.49 kg/m3
mass density ([2]; 298.15 K, x1 = 1): 1013.04 ± 0.51 kg/m3
mass density ([2]; 303.15 K, x1 = 1): 1009.96 ± 0.53 kg/m3
mass density ([2]; 308.15 K, x1 = 1): 1006.75 ± 0.55 kg/m3
mass density ([2]; 313.15 K, x1 = 1): 1003.55 ± 0.57 kg/m3
mass density ([2]; 318.15 K, x1 = 1): 1000.72 ± 0.59 kg/m3
mass density ([2]; 323.15 K, x1 = 1): 997.8 ± 0.61 kg/m3
mass density ([2]; 328.15 K, x1 = 1): 994.41 ± 0.64 kg/m3
